Assay results from patent US6166063A, “N-(substituted glycyl)-2-cyanopyrrolidines, pharmaceutical compositions containing them and their use in inhibiting dipeptidyl peptidase-IV” (Novartis AG, priority 1999, dated 2000).
pIC50: −log10 of the molar value.

Key:
insulin resistant rats = assay: Early insulin response to an oral glucose challenge in insulin resistant rats; assay type: in vivo, Male Sprague-Dawley rats; details: 10 μmol/kg oral in CMC, 30 min before oral glucose 1 g/kg; high fat diet rats; % increase of the mean of the control animals
Procedure: Male Sprague-Dawley rats that had been fed a high fat diet (saturated fat=57% calories) for 2-3 weeks were fasted for approximately 2 hours on the day of testing, divided into groups of 8-10, and dosed orally with 10 μmol/kg of the test compounds in CMC. An oral glucose bolus of 1 g/kg was administered 30 minutes after the test compound directly into the stomach of the test animals. Blood samples, obtained at various timepoints from chronic jugular vein catheters, were analyzed for plasma glucose and immunoreactive insulin (IRI) concentrations, and plasma DPP-IV activity. Plasma insulin levels were assayed by a double antibody radioimmunoassay (RIA) method using a specific anti-rat insulin antibody from Linco Research (St. Louis, Mo.). The RIA has a lower limit of detection of 0.5 μU/mL with intra- and inter-assay variations of less than 5%. Data are expressed as % increase of the mean of the control animals. Upon oral administration, each of the compounds tested amplified the early insulin response which led to an improvement in glucose tolerance in the insulin resistant test animals.

human plasma DPP-IV = human plasma DPP-IV (Homo sapiens, UniProt P27487); assay: DPP-IV inhibition in human plasma; assay type: biochemical; details: substrate H-Glycine-Proline-AMC, pH 7.8, room temperature, 8-point curve
Procedure: (§1) Briefly, 5 μl of plasma are added to 96-well flat-bottom microtiter plates (Falcon), followed by the addition of 5 μl of 80 mM MgCl2 in incubation buffer (25 mMHEPES, 140 mM NaCl, 1% RIA-grade BSA, pH 7.8). After a 60 min. incubation at room temperature, the reaction is initiated by the addition of 10 μl of incubation buffer containing 0.1 mM substrate (H-Glycine-Proline-AMC;AMC is 7-amino-4-methylcoumarin). The plates are covered with aluminum foil (or kept in the dark) and incubated at room temperature for 20 min. […] A fluorescence-concentration curve of free AMC is generated using 0-50 μM solutions of AMC in assay buffer. The curve generated is linear and is used for interpolation of substrate consumption (catalytic activity in nmoles substrate cleaved/min). As with the previous assay, the potency of the test compounds as DPP-IV inhibitors, expressed as IC50, is calculated from 8-point, dose-response curves using a 4 parameter logistic function.

rat plasma DPP-IV = rat plasma DPP-IV (Rattus norvegicus, UniProt P14740); assay: DPP-IV inhibition in rat plasma
Chain of rat plasma DPP-IV (P14740 37-767 limits assumed): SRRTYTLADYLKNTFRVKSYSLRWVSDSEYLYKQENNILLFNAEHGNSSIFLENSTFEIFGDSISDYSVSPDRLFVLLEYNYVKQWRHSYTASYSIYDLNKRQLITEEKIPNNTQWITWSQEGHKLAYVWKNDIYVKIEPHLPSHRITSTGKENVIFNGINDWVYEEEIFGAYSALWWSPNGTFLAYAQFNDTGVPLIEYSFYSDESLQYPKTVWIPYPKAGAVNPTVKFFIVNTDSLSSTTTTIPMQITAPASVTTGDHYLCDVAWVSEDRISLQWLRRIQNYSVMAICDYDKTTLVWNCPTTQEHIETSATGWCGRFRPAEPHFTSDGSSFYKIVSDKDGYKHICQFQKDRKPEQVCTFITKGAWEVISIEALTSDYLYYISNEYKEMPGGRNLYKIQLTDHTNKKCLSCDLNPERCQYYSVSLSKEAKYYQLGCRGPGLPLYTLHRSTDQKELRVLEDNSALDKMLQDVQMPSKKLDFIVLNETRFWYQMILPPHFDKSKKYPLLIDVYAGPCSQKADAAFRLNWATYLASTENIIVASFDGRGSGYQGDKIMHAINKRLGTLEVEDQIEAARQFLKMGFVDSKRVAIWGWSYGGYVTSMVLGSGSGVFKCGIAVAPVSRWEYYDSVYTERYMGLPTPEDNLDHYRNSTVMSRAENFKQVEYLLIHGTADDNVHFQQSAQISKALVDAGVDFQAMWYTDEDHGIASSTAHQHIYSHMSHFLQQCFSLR
Procedure: as §1

Chain of human plasma DPP-IV (P27487 39-766 limits assumed): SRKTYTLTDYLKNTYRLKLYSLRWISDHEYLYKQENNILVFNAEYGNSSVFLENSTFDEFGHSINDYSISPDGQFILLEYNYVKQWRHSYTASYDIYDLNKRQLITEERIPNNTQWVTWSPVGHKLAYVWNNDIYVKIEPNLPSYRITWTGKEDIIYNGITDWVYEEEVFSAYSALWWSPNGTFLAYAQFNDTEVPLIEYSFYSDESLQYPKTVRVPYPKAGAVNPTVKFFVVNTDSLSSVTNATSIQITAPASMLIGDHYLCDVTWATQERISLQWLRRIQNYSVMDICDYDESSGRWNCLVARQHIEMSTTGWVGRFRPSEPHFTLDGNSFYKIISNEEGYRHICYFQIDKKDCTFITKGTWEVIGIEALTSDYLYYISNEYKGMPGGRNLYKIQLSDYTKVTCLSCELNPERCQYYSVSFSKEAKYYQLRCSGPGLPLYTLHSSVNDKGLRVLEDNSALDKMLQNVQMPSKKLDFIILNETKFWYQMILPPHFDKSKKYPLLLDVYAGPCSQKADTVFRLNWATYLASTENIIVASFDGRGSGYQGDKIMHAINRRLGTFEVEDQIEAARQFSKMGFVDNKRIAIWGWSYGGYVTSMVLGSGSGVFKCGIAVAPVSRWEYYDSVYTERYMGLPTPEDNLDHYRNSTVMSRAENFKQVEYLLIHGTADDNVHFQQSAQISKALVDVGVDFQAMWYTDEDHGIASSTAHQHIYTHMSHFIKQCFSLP

Row | pIC50 (human plasma DPP-IV) | pIC50 (rat plasma DPP-IV) | Structure (SMILES) | Increase of Insulin Response (insulin resistant rats) [%]
1 | – | – | N#C[C@@H]1CCCN1C(=O)CNC12CC3CC(CC(O)(C3)C1)C2 [Ex. 1, Pyrrolidine, 1-[(3-hydroxy-1-adamantyl)amino]acetyl-2-cyano-, (S)] | 64
2 | 8.22 | 7.92 | N#C[C@@H]1CCCN1C(=O)CNC1C2CC3CC1CC(O)(C3)C2 (stereo partly drawn) [Ex. 8, Pyrrolidine, 1-[[(5-hydroxy-2-adamantyl)amino]-acetyl]-2-cyano-, (S)-] | –
